What all share (assay type): cell-based
One experiment concerns mouse T lymphocytes. Description: Mitochondrial content (Mitotracker positive cells) in mouse T lymphocytes. To be noted: 2 μM, 72 h. As to the method: Splenic murine T cells were isolated from mice aged 6-20 weeks by negative selection with EasySep mouse T cell isolation kit (Stem cell) according to the manufacturer's instructions. T cell activation was initiated using CD3/CD28 activation beads (11456D; ThermoFisher Scientific) at a ratio of 25 μl dynabeads per 0.5×10^6 T-cells. Cells were activated with test compounds at 2 μM or DMSO in T cell activation Medium (RPMI (ThermoFisher Scientific) 10% FBS (South America origin), 10 mM Hepes (Sigma), 1× Non-Essential Amino Acid, 1 mM Sodium Pyruvate, 50 μM β-Mercaptoethanol, 100 U/ml penicillin, 100 μg/ml streptomycin and 2 mM Glutamax (ThermoFisher Scientific) for 72 h. For subsequent analysis, activating beads were magnetically removed prior staining.
For flow cytometric analysis of mitochondria 500 μl of Mitotracker Red (200 nM; ThermoFisher) was applied followed by surface staining.
Cell doublets and cells debris were excluded from the analysis by gating FSC-A vs FSC-H followed by SSC-A vs SSC-H dot plots and FSC-A vs SSC-A dot plots, respectively. eFluor 780 highly positive cells, i.e, dead cells, were gated out of the analysis. Data was acquired on Canto II (BD), Fortessa (BD) and Aurora (Cytek) cytometers and analyzed with FlowJo.

The test system of experiment [1] is cortical neurons and microglial cells injured with Aβ1-42. Nature of the experiment: Rat primary culture of cortical neurons and microglial cells injured with Aβ1-42. Here is the method:
Pregnant female rat (Wistar) of 15 days of gestation were killed using a deep anesthesia with CO2 chamber and a cervical dislocation. Fetuses were collected and immediately placed in ice-cold L15 Leibovitz medium with a 2% penicillin (10,000 U/mL) and streptomycin (10 mg/mL) solution (PS) and 1% bovine serum albumin (BSA). Cortex were specifically dissected and then were treated for 20 min at 37° C. with a trypsin-EDTA solution at a final concentration of 0.05% trypsin and 0.02% EDTA. The dissociation was stopped by addition of Dulbecco's modified Eagle's medium (DMEM) with 4.5 g/L of glucose, containing DNAse I grade II (final concentration 0.5 mg/mL) and 10% fetal calf serum (FCS). Cells were mechanically dissociated by three forced passages through the tip of a 10-mL pipette. Cells were then centrifuged at 515×g for 10 min at 4° C. The supernatant was discarded, and the pellet was resuspended in a defined culture medium consisting of Neurobasal medium with a 2% solution of B27 supplement, 2 mmol/liter of L-glutamine, 2% of PS solution, 10 ng/mL of brain-derived neurotrophic factor (BDNF), 2% of heat-inactivated horse serum, 2% of heat-inactivated FCS, 1 g/L of glucose, 1 mM of sodium pyruvate, and 100 μM of non-essential amino acids. The presence of serum in the medium allows the growth of the microglial cells. Viable cells were counted in a Neubauer cytometer, using the trypan blue exclusion test.
The cells were seeded at a density of 45 000 per well in 96-well plate precoated with poly-L-lysine and were cultured at 37° C. in an air (95%)—CO2 (5%) incubator. The medium was changed every 2 days.
On day 11 of culture, the compounds were dissolved in the appropriate vehicle and pre-incubated with the primary cortical neurons for one hour (1 h), before Aβ1-42 exposure.
On day 11 of culture, the cortical neurons were injured with the AP 1-42 peptide. AP 1-42 peptide was dissolved in the defined culture medium mentioned above, at an initial concentration of 20 μM. The solution was gently agitated for 3 days at 37° C. in the dark and immediately used after being properly diluted in culture medium to the concentration used (5 μM, 0.5 μM oligomers precisely evaluated by automatic WB). The AP 1-42 solution was applied on the culture at […] (0.5 μM oligomers, AβO), in presence of the compound, for 72 hours.
72 hours after the application of Aβ, the cell culture supernatant was removed. Cells were then washed with phosphate-buffered saline (PBS) and fixed with a cold solution of ethanol (95%) and acetic acid (5%) for 5 min at −20° C. After two washing steps with cold PBS, cells permeabilized and unspecific binding sites were blocked with a solution of PBS containing 0.1% of saponin and 1% of FCS, for 15 min at RT. Cells were incubated for 2 hours with: • a) Monoclonal anti-MAP2 antibody produced in mouse at dilution of 1/400 in PBS containing 1% FCS, 0.1% saponin, for 2 hours at room temperature. • b) Rabbit polyclonal antibody anti-SIRP alpha/CD172a (OX-41) at dilution of 1/400 in PBS containing 1% fetal calf serum and 0.1% of saponin (this antibody stains specifically the microglia and will allow to evaluate the activation of the microglial cells).
For each condition, 30 pictures (representative of the whole well area) were automatically taken using ImageXpress® (Molecular Devices) at 20× magnification using the same acquisition parameters. From images, the analyses were automatically performed by MetaXpress® (Molecular Devices). The following read-outs were measured: • Total neuron survival (number of MAP-2(+) neurons), • Total length of neurite network of MAP-2(+) neurons (in μm) • Total area of activated microglia (area of OX-41 signal, in μm^2)
All values are expressed as mean+/−SEM (standard error of the mean). Statistical analysis was performed by one-way ANOVA followed by Fisher's LSD test, with GraphPad Prism. p<0.05 was considered significant.

In another experiment the test system is splenic murine T cells. Description: Murine T cells stimulated with αCD3/αCD28 in presence of UA. The following applies: ICG001 10 μM plus UA 50 μM, 48 h. Here is the method: Splenic murine T cells were isolated from mice aged 6-20 weeks by negative selection with EasySep mouse T cell isolation kit (Stem cell) according to the manufacturer's instructions. To monitor T cell proliferation, purified T cells were loaded with CellTrace Violet (C34557 ThermoFisher Scientific). T cell activation was initiated using αCD3/CD28 activation beads (11456D; ThermoFisher Scientific) at a ratio of 25 μl dynabeads per 0.5×106 T-cells. Cells were activated with 25-50 μM Urolithin A (Tocris) or DMSO in T cell activation Medium (RPMI (ThermoFisher Scientific) 10% FBS (South America origin), 10 mM Hepes (Sigma), 1×Non-Essential Amino Acid, 1 mM Sodium Pyruvate, 50 µM β-Mercaptoethanol, 100 U/mL penicillin, 100 μg/mL streptomycin and 2 mM Glutamax (ThermoFisher Scientific) for the indicated durations. In selected experiments, cells were stimulated in the presence of inhibitors, namely TCFli (ICG-001; SelleckChem; […]) and PGC-lai (SR-18292, Sigma-Aldrich; […]). For subsequent analysis, activating beads were magnetically removed prior antibody staining. For human T cells, peripheral blood mononuclear cells were purified with a Ficoll-Paque (GE healthcare) gradient. T cells were enriched with EasySep Human T Cell Isolation Kit (StemCell) and activated with dynabead Human T-Activator CD3/CD28 for T Cell Expansion and Activation Kit (11131D; ThermoFisher Scientific), similar to murine T cell stimulation. When the subsequent activation and expansion of CAR T cells was studied, plates were coated with 1 μg/mL anti-human CD3 (αCD3; clone OKT3) and thawed PBMC were cultivated with […] anti-human CD28 (αCD28; 15E8, both Miltenyi Biotec) containing media for three days. (NutriT media (4Cell® Nutri-T media (Sartorius) containing 0.5% penicillin/streptomycin) supplemented with IL-7 (25 U/mL) and IL-15 […] (all Miltenyi Biotec)).
Tumors were minced and digested with Tumor & Tissue Dissociation Reagent (BD Horizon) for 30 min. The remaining organ pieces were filtered through a 70 µm cell strainer. Cells were then washed with PBS 1% BSA and 2 mM EDTA. Immune cells were enriched on a 30%/40%/75% Percoll gradient after a 1700 rpm 17 min centrifugation. Then, tumor immune filtrates or activated T cells were stained with Fixable Viability Dye-eF780 (65-0865-14; eBioscience), αCD45-FITC (30-F11; 11-0451-85; eBioscience), αCD11b-BV650 (M1/70; 56340; BD) α-CD11c-BV785 (HL3; 563735; BD), aLy6G-BV605 (53-6.7; 563005; BD), aLy6C-AF700 (HK1.4; 128024; Biolegend), aF4/80-PE (BM8; 12-4801-82, eBioscience), aPD-L1-PECy7 (MIH5; 25-5982-80, eBioscience); or with Fixable Viability Dye-eF780 (ebioscience), αCD45-BV786 (30-F11; 564225; BD), αCD4-BUV496 (GK1.5; 564667; BD), αCD8-BV605 (100744; Biolegend), aPD1-APC (J43; 17-9985-82; eBioscience), aTIM-3-PECy7 (RMT3-23; 119715; Biolegend), aCTLA4-PE (UC10-4B9; 106305; Biolegend) and aLag3-BV421 (C9B7W; 125221, Biolegend); or with Fixable Viability Dye-eF780 (eBioscience), αCD4-FITC (H129.19; 553650; BD), αCD8-APC (53-6.7; 17-0081-83; eBioscience), αCD44-AF400 (IM7; 103026; Biolegend), αCD62L-BV785 (MEL-14; 104440; Biolegend), αSca-1-PerCP-Cy5.5 (D7; 45-5981-82; eBioscience), αCD95-PE (Jo2; 554258; BD); or with Fixable Viability Dye-eF780 (eBioscience), αCD8-BV650 (53-6.7; 563234; BD), αCD4-BUV496 (GK1.5; 564667; BD), αCD127-APC (A7R34; 17-1271-82; eBioscience), αCD95-FITC (SA367H8;152605; Biolegend), αCD44-AF400 (IM7; 103026; Biolegend), αCD62L-BV785 (MEL-14; 104440; Biolegend), αSca-1-PerCP-Cy5.5 (D7; 45-5981-82; eBioscience) followed by intracellular staining of aTCF1-PE (S33-966; 564217; BD), or PGC-1α (sc-518025; D-5; santa cruz), or aCyclinD1 (MA5-28534, DCS-6; Invitrogen) with transcription factor buffer set kit (BD Biosciences). To study cytokine expression, tumor immune infiltrates were stimulated ex vivo with 20 ng/mL PMA and […] Ionomycin (Sigma) for 3 h in T cell activation medium with Brefeldin A (Biolegend). […]

The mark [2] stands for this setting: 125 and 250 nM, Aβ1-42 72 hours.

The text below walks through data of US20240139149A1, “THERAPEUTIC USES OF UROLITHIN DERIVATIVES” (Vandria SA, priority 2022, published 2024).

In the case of `Cc1cc2c(cc1O)OC(C)(C)c1cc(O)c(C)cc1-2` [117A, 2,6,6,9-tetramethyl-6H-benzo[c]chromene-3,8-diol], in the experiment on mouse T lymphocytes, the “increase in the percentage of Mitotracker positive cells vs DMSO” value is listed as 30%. Further, the “percentage of Mitotracker positive cells” value in the experiment on mouse T lymphocytes (DMSO 44%) amounted to 57.3%. In addition, in experiment [1], the “microglial activation (conclusion)” value is “significantly reduce” and the “neuroprotection in the inflammatory in vitro model (conclusion)” value is “neuroprotective”. Besides, in experiment [1] (setting [2]), the “microglial activation (OX-41)” value is given as “decrease”, the “neurite network of cortical neurons (MAP-2)” value is “significantly protect” and the “survival of cortical neurons (MAP-2)” value is “significantly protect”.

Take `O=C1[C@H](Cc2ccc(O)cc2)N2C(=O)CCN(C(=O)NCc3ccccc3)[C@H]2CN1Cc1cccc2ccccc12` [ICG001]: the “UA-induced TSCM formation in presence of TCF-1 inhibitor” value in the experiment with splenic murine T cells is listed as “abrogated”.
